System: A549 cell line
Test: MTT cell viability, A549 cell line
Format: cell-based, human
Settings: Homo sapiens, A549 cell line, 24 hours, MTT
Procedure: The above cell lines were plated in 96-well plates at a density of 1×10^4 cells/well for 16 to 20 hours. […] After drug treatment, the cell lines were washed with phosphate-buffered saline (hereinafter referred to PBS), and were replaced with fresh complete RPMI-1640 medium for 2 days. Thereafter, the medium was replaced and the cells were incubated with 0.5 mg/ml of 3-(4,5-dimethylthiazol-2-yl)-2,5-diphenyltetrazolium bromide reagent (hereinafter referred to MTT, Sigma Chemical Co., St. Louis, Mo.) in complete RPMI-1640 medium for 4 hours. The viable cells converted MTT to formazan that generates a blue-purple color when dissolved in dimethyl sulfoxide (hereinafter referred to DMSO). The intensity of formazan was measured at 565 nm using a plate reader (VERSAmax, Molecular Dynamics, Sunnyvale, Calif.). The relative percentage of cell viability was calculated by dividing the absorbance of treated cells by that of the control in each experiment.
After drug treatment, the cells were washed with PBS and replaced with fresh complete RPMI-1640 medium for 2 days. Thereafter, the medium was replaced and the cells were incubated with 0.5 mg/mL of MTT reagent (Sigma Chemical Co., St. Louis, Mo.) in complete RPMI-1640 medium for 4 hours. The intensity of formazan was measured at 565 nm using a plate reader (VERSAmax, Molecular Dynamics, Sunnyvale, Calif.). The relative percentage of cell viability was calculated by dividing the absorbance of treated cells by that of the control in each experiment.

Row | SMILES | viability at 10 µM | viability at 20 µM | viability at 40 µM | viability at 60 µM | viability at 80 µM
1 | CCCCCCCCCCCCCCCCCCOC(=O)CCC(=O)N1CCN(CCCOc2cc3c(Nc4ccc(F)c(Cl)c4)ncnc3cc2OC)CC1 [Analogue-24, octadecyl 4-(4-(3-(4-(3-chloro-4-fluorophenylamino)-7-methoxyquinazolin-6-yloxy)propyl)piperazin-1-yl)-4-oxobutanoate] | 94.8% | 90.5% | 91% | 87.2% | 86.7%
2 | COC(=O)CCCCCCCC(=O)N1CCN(CCCOc2cc3c(Nc4ccc(F)c(Cl)c4)ncnc3cc2OC)CC1 [Analogue-7, methyl 9-(4-(3-(4-(3-chloro-4-fluorophenylamino)-7-methoxyquinazolin-6-yloxy)propyl)piperazin-1-yl)-9-oxononanoate] | 90.3% | 89.7% | 85.8% | 84.8% | 80.9%
3 | CCCCCCCCCCCCCOC(=O)CCC(=O)N1CCN(CCCOc2cc3c(Nc4ccc(F)c(Cl)c4)ncnc3cc2OC)CC1 [Analogue-19, tridecyl 4-(4-(3-(4-(3-chloro-4-fluorophenylamino)-7-methoxyquinazolin-6-yloxy)propyl)piperazin-1-yl)-4-oxobutanoate] | 93.7% | 93.8% | 71.1% | 20.6% | 6.8%
4 | CCCCCCOC(=O)CCC(=O)N1CCN(CCCOc2cc3c(Nc4ccc(F)c(Cl)c4)ncnc3cc2OC)CC1 [Analogue-12, hexyl 4-(4-(3-(4-(3-chloro-4-fluorophenylamino)-7-methoxyquinazolin-6-yloxy)propyl)piperazin-1-yl)-4-oxobutanoate] | 89.3% | 85.1% | 74.2% | 63.6% | 42.9%
5 | CCCCCCCCCCCCCCCCOC(=O)CCC(=O)N1CCN(CCCOc2cc3c(Nc4ccc(F)c(Cl)c4)ncnc3cc2OC)CC1 [Analogue-22, hexadecyl 4-(4-(3-(4-(3-chloro-4-fluorophenylamino)-7-methoxyquinazolin-6-yloxy)propyl)piperazin-1-yl)-4-oxobutanoate] | 97.7% | 91.7% | 82.6% | 80% | 74.3%
6 | CCCCCCCCCCCCCCCCCCCCOC(=O)CCC(=O)N1CCN(CCCOc2cc3c(Nc4ccc(F)c(Cl)c4)ncnc3cc2OC)CC1 [Analogue-26, icosyl 4-(4-(3-(4-(3-chloro-4-fluorophenylamino)-7-methoxyquinazolin-6-yloxy)propyl)piperazin-1-yl)-4-oxobutanoate] | 94% | 90.8% | 87.1% | 86.9% | 85.2%
7 | CCCCCOC(=O)CCC(=O)N1CCN(CCCOc2cc3c(Nc4ccc(F)c(Cl)c4)ncnc3cc2OC)CC1 [Analogue-11, pentyl 4-(4-(3-(4-(3-chloro-4-fluorophenylamino)-7-methoxyquinazolin-6-yloxy)propyl)piperazin-1-yl)-4-oxobutanoate] | 87.1% | 81.2% | 63.6% | 30% | 18.2%
8 | CCCCCCCOC(=O)CCC(=O)N1CCN(CCCOc2cc3c(Nc4ccc(F)c(Cl)c4)ncnc3cc2OC)CC1 [Analogue-13, heptyl 4-(4-(3-(4-(3-chloro-4-fluorophenylamino)-7-methoxyquinazolin-6-yloxy)propyl)piperazin-1-yl)-4-oxobutanoate] | 89.1% | 79.9% | 59.1% | 35.7% | 27.2%
9 | COC(=O)CCCCCCC(=O)N1CCN(CCCOc2cc3c(Nc4ccc(F)c(Cl)c4)ncnc3cc2OC)CC1 [Analogue-6, methyl 8-(4-(3-(4-(3-chloro-4-fluorophenylamino)-7-methoxyquinazolin-6-yloxy)propyl)piperazin-1-yl)-8-oxooctanoate] | 92% | 94.3% | 90.7% | 88.5% | 88.9%
10 | CCCCCCCCCOC(=O)CCC(=O)N1CCN(CCCOc2cc3c(Nc4ccc(F)c(Cl)c4)ncnc3cc2OC)CC1 [Analogue-15, nonyl 4-(4-(3-(4-(3-chloro-4-fluorophenylamino)-7-methoxyquinazolin-6-yloxy)propyl)piperazin-1-yl)-4-oxobutanoate] | 90% | 79.7% | 17.9% | 10.3% | 7.8%
11 | CCCCCCCCCCCCCCCCCOC(=O)CCC(=O)N1CCN(CCCOc2cc3c(Nc4ccc(F)c(Cl)c4)ncnc3cc2OC)CC1 [Analogue-23, heptadecyl 4-(4-(3-(4-(3-chloro-4-fluorophenylamino)-7-methoxyquinazolin-6-yloxy)propyl)piperazin-1-yl)-4-oxobutanoate] | 95.7% | 97.2% | 85.2% | 84.1% | 83.2%
12 | CCCCOC(=O)CCC(=O)N1CCN(CCCOc2cc3c(Nc4ccc(F)c(Cl)c4)ncnc3cc2OC)CC1 [Analogue-10, butyl 4-(4-(3-(4-(3-chloro-4-fluorophenylamino)-7-methoxyquinazolin-6-yloxy)propyl)piperazin-1-yl)-4-oxobutanoate] | 94.4% | 86% | 79.1% | 64.1% | 36.9%
13 | COC(=O)CCCCCC(=O)N1CCN(CCCOc2cc3c(Nc4ccc(F)c(Cl)c4)ncnc3cc2OC)CC1 [Analogue-5, methyl 7-(4-(3-(4-(3-chloro-4-fluorophenylamino)-7-methoxyquinazolin-6-yloxy)propyl)piperazin-1-yl)-7-oxoheptanoate] | 95.2% | 91.7% | 90.1% | 83.4% | 82.4%
14 | CCCCCCCCCCCCCCOC(=O)CCC(=O)N1CCN(CCCOc2cc3c(Nc4ccc(F)c(Cl)c4)ncnc3cc2OC)CC1 [Analogue-20, tetradecyl 4-(4-(3-(4-(3-chloro-4-fluorophenylamino)-7-methoxyquinazolin-6-yloxy)propyl)piperazin-1-yl)-4-oxobutanoate] | 100% | 92.3% | 88.6% | 84.9% | 77.2%
15 | CCCCCCCCCCCCCCCCCCCOC(=O)CCC(=O)N1CCN(CCCOc2cc3c(Nc4ccc(F)c(Cl)c4)ncnc3cc2OC)CC1 [Analogue-25, nonadecyl 4-(4-(3-(4-(3-chloro-4-fluorophenylamino)-7-methoxyquinazolin-6-yloxy)propyl)piperazin-1-yl)-4-oxobutanoate] | 94.5% | 94.8% | 92.3% | 89.3% | 88.4%
16 | CCCCCCCCCCCCCCCOC(=O)CCC(=O)N1CCN(CCCOc2cc3c(Nc4ccc(F)c(Cl)c4)ncnc3cc2OC)CC1 [Analogue-21, pentadecyl 4-(4-(3-(4-(3-chloro-4-fluorophenylamino)-7-methoxyquinazolin-6-yloxy)propyl)piperazin-1-yl)-4-oxobutanoate] | 92% | 91.2% | 85.5% | 81.6% | 81.1%

From US9512086B2, “Compound for promoting apoptosis of cancer cells and a pharmaceutical composition containing the same and uses thereof” (National Chiao Tung University, priority 2014, dated 2016)
